Measurements: ChEMBL document CHEMBL5360648, “Identification of 5-HT2 Serotonin Receptor Modulators through the Synthesis of a Diverse, Tropane- and Quinuclidine-alkaloid-Inspired Compound Library” (J Med Chem, 2023)

Columns and labels:
[1] = biological target: T1, 5-hydroxytryptamine receptor 1A (Homo sapiens) (UniProt P08908); experiment: Inhibition of [3H]-8-OH-DPAT from binding to 5-HT1A receptor (unknown origin) at 10 uM relative to control
T1 sequence (whole entry): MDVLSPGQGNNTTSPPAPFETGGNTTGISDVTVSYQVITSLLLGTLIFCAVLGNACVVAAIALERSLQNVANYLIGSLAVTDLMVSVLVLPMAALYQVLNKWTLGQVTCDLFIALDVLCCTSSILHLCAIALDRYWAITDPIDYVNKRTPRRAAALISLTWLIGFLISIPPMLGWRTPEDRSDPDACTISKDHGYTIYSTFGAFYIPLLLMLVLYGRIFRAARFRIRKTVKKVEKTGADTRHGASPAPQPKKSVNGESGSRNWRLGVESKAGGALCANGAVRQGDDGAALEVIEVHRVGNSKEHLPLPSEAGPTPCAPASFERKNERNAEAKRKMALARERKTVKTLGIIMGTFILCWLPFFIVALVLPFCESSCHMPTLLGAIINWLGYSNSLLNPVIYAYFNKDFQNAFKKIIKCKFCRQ

[2] = biological target: T2, Muscarinic acetylcholine receptor M5 (Homo sapiens) (UniProt P08912); experiment: Inhibition of [3H]4-DAMP from binding to M5 receptor (unknown origin) at 10 uM relative to control
T2 sequence (whole entry): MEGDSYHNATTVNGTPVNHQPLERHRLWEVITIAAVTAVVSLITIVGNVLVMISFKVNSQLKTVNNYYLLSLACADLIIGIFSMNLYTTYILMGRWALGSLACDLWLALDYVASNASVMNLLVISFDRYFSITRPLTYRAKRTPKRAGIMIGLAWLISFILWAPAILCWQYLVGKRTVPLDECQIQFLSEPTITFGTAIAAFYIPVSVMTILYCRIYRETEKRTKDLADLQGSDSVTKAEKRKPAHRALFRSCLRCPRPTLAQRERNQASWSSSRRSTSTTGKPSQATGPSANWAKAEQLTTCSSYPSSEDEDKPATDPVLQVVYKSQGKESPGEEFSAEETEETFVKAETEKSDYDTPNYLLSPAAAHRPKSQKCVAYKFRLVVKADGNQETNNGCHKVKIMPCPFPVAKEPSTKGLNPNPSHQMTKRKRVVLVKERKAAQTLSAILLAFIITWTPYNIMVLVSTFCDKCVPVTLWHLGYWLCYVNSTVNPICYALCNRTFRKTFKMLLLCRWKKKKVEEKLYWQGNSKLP

[3] = Antagonist activity at 5-HT-induced 5-HT2B signaling in CHO cells by IP1 assay; details: Cricetulus griseus
[4] = biological target: T3, Muscarinic acetylcholine receptor M4 (Homo sapiens) (UniProt P08173); experiment: Inhibition of [3H]4-DAMP from binding to M4 receptor (unknown origin) at 10 uM relative to control
T3 sequence (whole entry): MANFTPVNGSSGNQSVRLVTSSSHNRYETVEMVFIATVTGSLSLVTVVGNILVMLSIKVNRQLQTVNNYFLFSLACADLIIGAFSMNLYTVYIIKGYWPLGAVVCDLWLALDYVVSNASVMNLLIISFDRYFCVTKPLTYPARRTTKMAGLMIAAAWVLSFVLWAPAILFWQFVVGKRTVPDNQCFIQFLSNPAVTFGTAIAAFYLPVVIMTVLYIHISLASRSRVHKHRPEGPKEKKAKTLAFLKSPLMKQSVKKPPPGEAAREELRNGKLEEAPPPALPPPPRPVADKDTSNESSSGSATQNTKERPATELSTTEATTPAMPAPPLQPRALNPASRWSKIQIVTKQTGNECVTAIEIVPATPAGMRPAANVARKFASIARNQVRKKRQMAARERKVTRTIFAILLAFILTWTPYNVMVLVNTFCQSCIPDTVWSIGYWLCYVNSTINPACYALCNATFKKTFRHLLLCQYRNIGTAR

[5] = biological target: T4, Muscarinic acetylcholine receptor M1 (Homo sapiens) (UniProt P11229); experiment: Inhibition of [3H]pirenzepine from binding to M1 receptor (unknown origin) at 10 uM relative to control
T4 sequence (whole entry): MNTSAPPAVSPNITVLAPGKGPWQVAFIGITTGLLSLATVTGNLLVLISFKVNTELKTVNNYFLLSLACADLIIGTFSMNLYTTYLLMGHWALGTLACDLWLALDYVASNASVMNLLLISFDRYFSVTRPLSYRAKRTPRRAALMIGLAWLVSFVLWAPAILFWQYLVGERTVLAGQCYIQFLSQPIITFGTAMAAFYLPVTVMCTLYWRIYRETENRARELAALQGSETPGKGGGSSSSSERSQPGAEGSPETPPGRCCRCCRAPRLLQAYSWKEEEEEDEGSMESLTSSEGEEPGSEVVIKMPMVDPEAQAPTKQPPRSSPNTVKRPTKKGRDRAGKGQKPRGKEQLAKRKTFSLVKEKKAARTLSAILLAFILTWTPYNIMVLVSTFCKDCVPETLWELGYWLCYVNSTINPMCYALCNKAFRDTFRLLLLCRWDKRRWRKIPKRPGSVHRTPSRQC

[6] = biological target: Muscarinic acetylcholine receptor M3 (Homo sapiens) (UniProt P20309); experiment: Inhibition of [3H]4-DAMP from binding to M3 receptor (unknown origin) at 10 uM relative to control
Muscarinic acetylcholine receptor M3 (Homo sapiens), sequence (P20309 whole entry, looked up): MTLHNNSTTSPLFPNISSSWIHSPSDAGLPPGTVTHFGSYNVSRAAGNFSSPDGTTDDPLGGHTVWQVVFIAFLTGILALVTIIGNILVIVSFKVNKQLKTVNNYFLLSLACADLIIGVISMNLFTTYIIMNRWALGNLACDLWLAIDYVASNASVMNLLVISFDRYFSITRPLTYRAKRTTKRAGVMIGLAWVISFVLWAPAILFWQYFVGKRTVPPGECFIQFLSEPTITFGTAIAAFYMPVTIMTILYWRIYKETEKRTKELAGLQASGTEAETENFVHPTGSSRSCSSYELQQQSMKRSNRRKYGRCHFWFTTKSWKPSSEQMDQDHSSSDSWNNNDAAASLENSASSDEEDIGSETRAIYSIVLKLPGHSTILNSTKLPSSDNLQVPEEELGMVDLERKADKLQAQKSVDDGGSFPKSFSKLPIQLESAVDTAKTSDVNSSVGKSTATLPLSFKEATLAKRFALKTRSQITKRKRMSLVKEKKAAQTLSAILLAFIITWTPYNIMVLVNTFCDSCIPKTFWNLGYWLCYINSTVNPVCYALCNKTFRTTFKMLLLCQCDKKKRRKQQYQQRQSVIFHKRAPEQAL

[7] = biological target: 5-hydroxytryptamine receptor 4 (Homo sapiens) (UniProt Q13639); experiment: Inhibition of [3H]GR113808 from binding to 5-HT4E receptor (unknown origin) at 10 uM relative to control
5-hydroxytryptamine receptor 4 (Homo sapiens), sequence (Q13639 whole entry): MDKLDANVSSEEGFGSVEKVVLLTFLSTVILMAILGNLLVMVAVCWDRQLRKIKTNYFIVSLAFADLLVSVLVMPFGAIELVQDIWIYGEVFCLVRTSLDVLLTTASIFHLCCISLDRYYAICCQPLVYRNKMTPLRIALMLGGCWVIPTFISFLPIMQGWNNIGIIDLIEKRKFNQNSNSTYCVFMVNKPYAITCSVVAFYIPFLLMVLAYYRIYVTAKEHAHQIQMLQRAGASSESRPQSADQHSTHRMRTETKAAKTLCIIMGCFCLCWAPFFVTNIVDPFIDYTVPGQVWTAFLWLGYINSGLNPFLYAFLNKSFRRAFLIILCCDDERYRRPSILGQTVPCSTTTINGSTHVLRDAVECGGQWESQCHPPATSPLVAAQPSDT

[8] = biological target: 5-hydroxytryptamine receptor 2B (Homo sapiens) (UniProt P41595); experiment: Inhibition of [3H]mesulergine from binding to 5-HT2B receptor (unknown origin) at 10 uM relative to control
5-hydroxytryptamine receptor 2B (Homo sapiens), sequence (P41595 whole entry): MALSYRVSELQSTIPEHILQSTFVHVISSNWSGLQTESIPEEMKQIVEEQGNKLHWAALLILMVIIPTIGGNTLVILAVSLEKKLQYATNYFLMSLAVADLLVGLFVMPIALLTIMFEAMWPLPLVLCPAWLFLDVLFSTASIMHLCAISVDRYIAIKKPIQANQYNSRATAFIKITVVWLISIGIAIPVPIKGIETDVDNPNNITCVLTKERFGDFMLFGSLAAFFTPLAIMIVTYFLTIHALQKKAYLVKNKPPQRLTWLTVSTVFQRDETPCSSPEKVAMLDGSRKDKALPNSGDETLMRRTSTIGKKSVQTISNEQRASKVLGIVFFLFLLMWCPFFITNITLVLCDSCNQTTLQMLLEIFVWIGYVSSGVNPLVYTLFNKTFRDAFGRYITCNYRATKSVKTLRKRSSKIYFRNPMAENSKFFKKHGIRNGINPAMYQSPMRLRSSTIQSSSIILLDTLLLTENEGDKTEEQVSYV

[9] = species on record: Homo sapiens; experiment: Inhibition of [3H]BRL43694 from binding to 5-HT3 receptor (unknown origin) at 10 uM relative to control
[10] = biological target: T5, Muscarinic acetylcholine receptor M2 (Homo sapiens) (UniProt P08172); experiment: Inhibition of [3H]AF-DX384 from binding to M2 receptor (unknown origin) at 10 uM relative to control
T5 sequence (whole entry): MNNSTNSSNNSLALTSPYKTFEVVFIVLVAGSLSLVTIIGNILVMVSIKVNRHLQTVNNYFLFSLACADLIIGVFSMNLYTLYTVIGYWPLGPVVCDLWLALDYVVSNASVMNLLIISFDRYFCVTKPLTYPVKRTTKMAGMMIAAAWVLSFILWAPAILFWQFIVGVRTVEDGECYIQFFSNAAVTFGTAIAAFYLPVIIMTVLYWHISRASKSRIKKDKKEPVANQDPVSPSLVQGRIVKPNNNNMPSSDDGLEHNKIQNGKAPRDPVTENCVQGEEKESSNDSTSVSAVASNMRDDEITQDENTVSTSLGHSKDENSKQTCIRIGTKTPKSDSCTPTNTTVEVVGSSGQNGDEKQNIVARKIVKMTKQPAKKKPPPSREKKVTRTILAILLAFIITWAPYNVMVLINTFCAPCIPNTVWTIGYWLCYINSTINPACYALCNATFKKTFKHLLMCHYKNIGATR

[11] = biological target: 5-hydroxytryptamine receptor 6 (Homo sapiens) (UniProt P50406); experiment: Inhibition of [3H]LSD from binding to 5-HT6 receptor (unknown origin) at 10 uM relative to control
5-hydroxytryptamine receptor 6 (Homo sapiens), sequence (P50406 whole entry): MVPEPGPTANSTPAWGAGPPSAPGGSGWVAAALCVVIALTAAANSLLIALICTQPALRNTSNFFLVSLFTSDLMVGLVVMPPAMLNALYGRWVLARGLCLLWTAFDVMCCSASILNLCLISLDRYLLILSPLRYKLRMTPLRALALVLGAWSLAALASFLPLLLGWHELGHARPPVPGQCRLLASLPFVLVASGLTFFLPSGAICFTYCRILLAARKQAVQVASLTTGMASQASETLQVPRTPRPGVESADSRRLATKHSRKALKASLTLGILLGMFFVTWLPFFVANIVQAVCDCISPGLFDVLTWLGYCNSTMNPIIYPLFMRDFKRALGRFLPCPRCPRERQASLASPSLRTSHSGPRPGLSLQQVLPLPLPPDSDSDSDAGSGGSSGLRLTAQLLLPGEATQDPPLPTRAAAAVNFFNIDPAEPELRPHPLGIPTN

[12] = biological target: 5-hydroxytryptamine receptor 7 (Homo sapiens) (UniProt P34969); experiment: Inhibition of [3H]LSD from binding to 5-HT7 receptor (unknown origin) at 10 uM relative to control
5-hydroxytryptamine receptor 7 (Homo sapiens), sequence (P34969 whole entry): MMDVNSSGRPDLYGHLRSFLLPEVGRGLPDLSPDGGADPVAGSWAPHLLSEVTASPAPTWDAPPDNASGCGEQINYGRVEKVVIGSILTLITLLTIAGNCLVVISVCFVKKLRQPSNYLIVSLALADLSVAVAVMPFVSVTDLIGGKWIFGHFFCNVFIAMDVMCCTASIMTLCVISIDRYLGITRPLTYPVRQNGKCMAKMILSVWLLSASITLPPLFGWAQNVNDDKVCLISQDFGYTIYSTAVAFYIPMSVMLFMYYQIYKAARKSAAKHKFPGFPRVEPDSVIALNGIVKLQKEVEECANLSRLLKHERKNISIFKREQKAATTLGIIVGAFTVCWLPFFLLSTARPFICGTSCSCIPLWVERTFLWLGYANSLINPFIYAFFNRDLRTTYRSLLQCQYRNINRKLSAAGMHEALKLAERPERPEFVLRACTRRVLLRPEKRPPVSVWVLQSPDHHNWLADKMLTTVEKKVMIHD

[13] = biological target: 5-hydroxytryptamine receptor 5A (Homo sapiens) (UniProt P47898); experiment: Inhibition of [3H]LSD from binding to 5-HT5A receptor (unknown origin) at 10 uM relative to control
5-hydroxytryptamine receptor 5A (Homo sapiens), sequence (P47898 whole entry): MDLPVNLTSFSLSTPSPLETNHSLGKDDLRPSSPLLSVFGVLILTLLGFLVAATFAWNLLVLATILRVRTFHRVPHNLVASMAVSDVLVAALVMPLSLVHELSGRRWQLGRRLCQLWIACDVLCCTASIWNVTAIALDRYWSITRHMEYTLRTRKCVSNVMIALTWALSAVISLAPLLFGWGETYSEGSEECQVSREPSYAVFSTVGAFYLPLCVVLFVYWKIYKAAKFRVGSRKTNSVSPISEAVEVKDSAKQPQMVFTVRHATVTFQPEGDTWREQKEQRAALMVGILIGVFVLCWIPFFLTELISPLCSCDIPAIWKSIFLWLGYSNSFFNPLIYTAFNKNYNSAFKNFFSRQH

[14] = biological target: T6, 5-hydroxytryptamine receptor 2A (Homo sapiens, UniProt P28223); experiment: Antagonist activity at 5-HT2A receptor in HEK293 cells assessed as calcium mobilisation by Fluo-4 dye based assay; assay type: functional, cell-based
T6 sequence (P28223 whole entry): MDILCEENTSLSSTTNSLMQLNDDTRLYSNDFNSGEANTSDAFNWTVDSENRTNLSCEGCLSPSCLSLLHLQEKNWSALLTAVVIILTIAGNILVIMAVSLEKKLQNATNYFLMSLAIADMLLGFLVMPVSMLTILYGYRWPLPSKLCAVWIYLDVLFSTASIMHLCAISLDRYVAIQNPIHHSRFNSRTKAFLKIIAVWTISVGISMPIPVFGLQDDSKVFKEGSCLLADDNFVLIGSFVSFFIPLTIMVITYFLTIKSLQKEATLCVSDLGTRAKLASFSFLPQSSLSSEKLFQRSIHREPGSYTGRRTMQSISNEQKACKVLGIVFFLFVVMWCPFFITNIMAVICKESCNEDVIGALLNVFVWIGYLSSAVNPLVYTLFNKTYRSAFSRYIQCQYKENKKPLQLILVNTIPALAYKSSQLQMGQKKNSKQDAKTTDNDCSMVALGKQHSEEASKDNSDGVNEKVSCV

[15] = biological target: T7, 5-hydroxytryptamine receptor 2C (Homo sapiens, UniProt P28335); experiment: Antagonist activity at 5-HT2C receptor in HEK293 cells assessed as calcium mobilisation by Fluo-4 dye based assay; assay type: functional, cell-based
T7 sequence (P28335 whole entry): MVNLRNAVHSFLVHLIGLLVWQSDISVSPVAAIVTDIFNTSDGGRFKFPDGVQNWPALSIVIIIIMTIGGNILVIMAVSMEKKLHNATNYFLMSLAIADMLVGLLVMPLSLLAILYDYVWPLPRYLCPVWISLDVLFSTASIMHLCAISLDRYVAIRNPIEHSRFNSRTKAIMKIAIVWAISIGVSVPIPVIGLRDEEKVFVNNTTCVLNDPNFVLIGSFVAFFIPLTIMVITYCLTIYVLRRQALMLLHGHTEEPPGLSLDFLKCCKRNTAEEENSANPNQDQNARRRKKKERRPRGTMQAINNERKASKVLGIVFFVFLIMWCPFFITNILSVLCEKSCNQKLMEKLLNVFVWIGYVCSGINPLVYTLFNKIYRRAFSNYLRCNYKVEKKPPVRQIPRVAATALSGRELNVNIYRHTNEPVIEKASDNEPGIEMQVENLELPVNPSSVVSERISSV

[16] = biological target: 5-hydroxytryptamine receptor 7 (Homo sapiens) (UniProt P34969); experiment: Inhibition of [3H]LSD from binding to 5-HT7 receptor (unknown origin) at 1 uM relative to control
[17] = biological target: Neuronal acetylcholine receptor; alpha4/beta2 (Homo sapiens) (UniProt P17787+P43681); experiment: Inhibition of [3H]epibatidine from binding to human nACh receptor alpha4beta2 expressed in HEK293 cell membrane at 10 uM incubated for 2.5 hrs by liquid scintillation counting analysis relative to control; assay type: cell membranes
[18] = biological target: Neuronal acetylcholine receptor; alpha3/beta4 (Rattus norvegicus) (UniProt P04757+P12392); experiment: Inhibition of [3H]epibatidine from binding to rat nACh receptor alpha3beta4 expressed in HEK293 cell membrane at 10 uM incubated for 2.5 hrs by liquid scintillation counting analysis relative to control; assay type: cell membranes
[19] = biological target: T6, 5-hydroxytryptamine receptor 2A; experiment: Agonist activity at 5-HT2A receptor in HEK293 cells assessed as calcium mobilisation by Fluo-4 dye based assay

Compound	IC50 [14] [µM]	IC50 [15] [µM]	further results
O=C1C[C@]2(CN3CCC2CC3)Oc2c1ccc1ccccc21	50	0.095	inhibition [1]: 57%; inhibition [2]: 69%; IC50 [3]: 0.135 µM; inhibition [4]: 67%; inhibition [5]: 67%; inhibition [6]: 27%; inhibition [7]: 42%; inhibition [8]: 99%; inhibition [9]: 85%; inhibition [10]: 31%; inhibition [11]: 57%; inhibition [12]: 92%; inhibition [13]: 64%; inhibition [16]: 67%
O=C1C[C@]2(CN3CCC2CC3)Oc2cc3ccccc3cc21	50	> 100	
O=C1NC2(CN3CCC2CC3)Nc2ccccc21 (stereo not given)			inhibition [17]: > 50%; inhibition [18]: > 50%
O=C1C[C@]2(CN3CCC2CC3)Oc2ccc(F)cc21	> 10	> 10	
O=C1C[C@@]2(CN3CCC2CC3)Oc2c1ccc1ccccc21	> 100	50	
COc1ccc2c(c1)O[C@]1(CC2=O)CN2CCC1CC2	> 30	0.52	EC50 [19]: > 30 µM
O=C1C[C@]2(CN3CCC2CC3)Oc2cc(Br)ccc21	15	2.3	
COc1cccc2c1C(=O)C[C@]1(CN3CCC1CC3)O2	> 100	5	
Cc1ccc2c(c1)O[C@]1(CC2=O)CN2CCC1CC2	> 100	2.5	
O=C1CC2(CN3CCC2CC3)Oc2c1ccc1ccccc21 (racemic)	20	0.18	
O=C1C[C@]2(CN3CCC2CC3)Oc2cc(O)ccc21	> 100	2.5	
O=C1C[C@]2(CN3CCC2CC3)Oc2ccc(Br)cc21	> 10	> 10	
O=C1C[C@]2(CN3CCC2CC3)Oc2cc(OCC3CC3)ccc21	> 100	1.5	
O=C1C[C@]2(CN3CCC2CC3)Oc2ccccc21	> 10	> 10	
COc1ccc2c(c1)C(=O)C[C@]1(CN3CCC1CC3)O2	> 10	> 10	
